In US20240174727A1, “LONG-ACTING NATRIURETIC PEPTIDES AND USES THEREOF” (Eli Lilly and Company, priority 2022, published 2024):
Like-named read-outs stand apart in the source and are kept apart here. Numbered stars: 1 amine (or outer) side, 2 acyl side, 3 side chain; on linkers, the order of the positions; unused ones are H or OH. Bridge positions count the residues as written; N and C are the ends. Square brackets hold non-standard residues; d marks the D form. * marks the point of attachment. C20 diacid = O=C(O)CCCCCCCCCCCCCCCCCCC(=O)*; γGlu = O=C(O)[C@H](CCC(=O)[*:2])N[*:1]; Dap = NC[C@H](N)C(=O)O; AEEA = NCCOCCOCC(=O)O; CH2 = C([*:1])[*:2]; βAla = NCCC(=O)O

Key:
[1] = biological target: T1, rat NPRA (Rattus norvegicus, UniProt P18910); test: Rat NPRA cGMP activity assay (HTRF) in HEK293 cells overexpressing NPRA; type: cell-based
T1 construct: Full-Length cDNA Cloning and Generation of Cell Lines Overexpressing Natriuretic Peptide Receptors (NPRs); expressed in transfected cells; host or cells: Jump-in T-Rex HEK293 cells, pJTI R4 CMV-TO MCS pA vector, tetracycline induction
T1 sequence (P18910 29-1057): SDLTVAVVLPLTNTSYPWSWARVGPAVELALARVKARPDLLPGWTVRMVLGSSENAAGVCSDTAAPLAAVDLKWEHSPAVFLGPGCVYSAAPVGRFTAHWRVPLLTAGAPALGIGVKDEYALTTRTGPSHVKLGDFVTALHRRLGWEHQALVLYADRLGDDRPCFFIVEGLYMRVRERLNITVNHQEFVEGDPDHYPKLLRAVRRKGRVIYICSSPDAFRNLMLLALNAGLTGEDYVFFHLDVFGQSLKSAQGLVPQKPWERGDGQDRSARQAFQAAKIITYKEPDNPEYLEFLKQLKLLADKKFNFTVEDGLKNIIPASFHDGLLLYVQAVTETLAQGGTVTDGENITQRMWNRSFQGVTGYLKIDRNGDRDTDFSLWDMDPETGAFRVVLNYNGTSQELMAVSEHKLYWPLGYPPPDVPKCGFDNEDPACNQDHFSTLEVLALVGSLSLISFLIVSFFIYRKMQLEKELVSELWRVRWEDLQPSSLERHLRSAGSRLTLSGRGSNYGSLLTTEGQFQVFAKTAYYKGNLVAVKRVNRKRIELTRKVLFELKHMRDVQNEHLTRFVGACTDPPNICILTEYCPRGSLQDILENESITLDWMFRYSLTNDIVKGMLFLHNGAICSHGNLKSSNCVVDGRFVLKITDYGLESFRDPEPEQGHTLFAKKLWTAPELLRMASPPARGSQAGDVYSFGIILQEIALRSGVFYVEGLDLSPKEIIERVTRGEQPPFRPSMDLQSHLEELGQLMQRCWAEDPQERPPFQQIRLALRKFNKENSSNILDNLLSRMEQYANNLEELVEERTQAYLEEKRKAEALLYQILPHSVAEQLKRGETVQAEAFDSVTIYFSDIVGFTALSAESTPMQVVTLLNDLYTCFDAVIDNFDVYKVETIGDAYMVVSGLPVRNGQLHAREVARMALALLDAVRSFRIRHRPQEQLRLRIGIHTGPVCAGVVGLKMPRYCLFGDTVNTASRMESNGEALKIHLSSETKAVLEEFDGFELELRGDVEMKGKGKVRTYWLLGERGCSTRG
Procedure, shortened: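 cGMP measured by HTRF and scaled between buffer (minimum) and 100 nM amidated rat ANP (maximum). Polypeptides in 10-fold steps from 10 μM to 1 pM, 0.5% DMSO, 0.5 mM IBMX, 40 min at room temperature, on induced NPRA-overexpressing HEK293 cells.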

[2] = biological target: T2, human NPRA (Homo sapiens, UniProt P16066); test: Human NPRA cGMP activity assay (HTRF) in HEK293 cells overexpressing NPRA; type: cell-based; conditions: assay buffer with 0.1% casein
T2 construct: Full-Length cDNA Cloning and Generation of Cell Lines Overexpressing Natriuretic Peptide Receptors (NPRs); expressed in transfected cells; host or cells: Jump-in T-Rex HEK293 cells, pJTI R4 CMV-TO MCS pA vector, tetracycline induction
T2 sequence (P16066 33-1061): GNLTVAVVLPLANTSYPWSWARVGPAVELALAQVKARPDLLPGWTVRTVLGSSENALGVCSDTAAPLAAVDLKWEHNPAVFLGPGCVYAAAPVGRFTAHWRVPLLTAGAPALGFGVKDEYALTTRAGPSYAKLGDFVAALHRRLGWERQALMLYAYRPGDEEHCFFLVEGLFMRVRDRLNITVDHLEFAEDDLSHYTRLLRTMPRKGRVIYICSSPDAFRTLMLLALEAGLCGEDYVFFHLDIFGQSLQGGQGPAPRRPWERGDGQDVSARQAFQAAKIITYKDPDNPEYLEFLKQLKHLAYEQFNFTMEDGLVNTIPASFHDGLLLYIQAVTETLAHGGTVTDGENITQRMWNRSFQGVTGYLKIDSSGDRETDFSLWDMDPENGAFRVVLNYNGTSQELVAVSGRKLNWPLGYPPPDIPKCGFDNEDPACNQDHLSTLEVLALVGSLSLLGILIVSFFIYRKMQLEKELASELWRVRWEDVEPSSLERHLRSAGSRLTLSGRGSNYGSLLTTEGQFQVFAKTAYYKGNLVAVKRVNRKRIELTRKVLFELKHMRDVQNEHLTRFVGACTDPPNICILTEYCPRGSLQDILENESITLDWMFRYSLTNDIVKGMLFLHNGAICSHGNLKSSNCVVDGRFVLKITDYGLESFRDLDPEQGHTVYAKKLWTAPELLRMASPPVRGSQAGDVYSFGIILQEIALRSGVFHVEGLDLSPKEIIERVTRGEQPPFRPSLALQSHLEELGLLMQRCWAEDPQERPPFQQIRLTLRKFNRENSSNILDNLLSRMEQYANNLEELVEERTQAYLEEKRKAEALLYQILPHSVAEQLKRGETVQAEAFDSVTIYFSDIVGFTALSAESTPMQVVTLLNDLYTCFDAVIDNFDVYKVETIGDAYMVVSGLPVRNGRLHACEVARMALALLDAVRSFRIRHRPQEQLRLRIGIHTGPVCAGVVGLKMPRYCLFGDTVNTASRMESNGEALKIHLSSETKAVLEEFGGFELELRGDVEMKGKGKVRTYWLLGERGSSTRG
Protocol: All sequences were verified by full-length sequencing performed by ACGT DNA Sequencing Services (Wheeling, IL). The target cDNA was cloned into pJTI R4 CMV-TO MCS pA vector and then co-transfected with pJT1R4 Int vector into Jump-in™ T-Rex™ HEK293 cells for mammalian inducible expression using Jump-in™ T-Rex™ HEK293 kit and Lipofectamine LTX and Plus Reagent following manufacturer's protocols, as briefly described below.
Jump-in™ T-Rex™ HEK293 cells were plated in a BioCOAT® poly-D-lysine coated 6-well plate (Becton Dickinson, cat no. 354413) at 1 million cells/well in 2 mL culture medium and incubated for 18 h at 37° C. and 5% CO2 to 50-70% confluence. A cDNA mix was made in a 50 mL tube by adding 1.5 μg target cDNA, 1.5 μg pJT1R4 Int vector, 3 μL Plus Reagent, and 300 μL Opti-MEM I sequentially into the tube. A reagent mix was made in a separate 50 mL tube by adding 7.5 μL Lipofectamine LTX into 300 μL Opti-MEM I. The mixtures were incubated for 5 min at room temperature. The cDNA mix was then transferred into the reagent mix, mixed well, and incubated for additional 30 min at room temperature. A 500 μL of cDNA/Lipofectamine complex was then transferred to the wells of the cell plate in which the culture medium was changed to 2 mL of transfection medium containing DMEM with 4.5 g/L D-glucose supplemented with 10% FBS-HI and 20 mM HEPES. Transfected cells were cultured for 48 h in an incubator at 37° C. and 5% CO2. A subclone or pool from each overexpressing cell line was maintained in culture medium with the addition of 2 mg/mL G418 sulfate for the clone selection based on its built-in resistance to G418 sulfate for at least 3 weeks with medium changed every 2-3 days.
NPRs were overexpressed in T-Rex™ HEK293 cells following the induction with 300 ng/mL tetracycline in culture medium for 48 h. Induced cell lines in an exponential growth phase were treated with 0.05% trypsin-EDTA for a few seconds at room temperature, harvested in cell medium containing FBS to neutralize the trypsin, counted, and cryopreserved at the density of 2 million cells/mL in cell preservation solution containing FBS-HI with 5% DMSO. Cryopreserved cells were stored at −80° C. for a few days prior to transferring to a liquid nitrogen tank. Induced cell lines were then used for suspension assays to measure the activity of polypeptides to stimulate cGMP production in cGMP assays or for the preparation of cell membranes to measure the binding activity of polypeptides in competitive radioligand binding assays, as described below.
Test polypeptides were added starting at 10 μM concentration and at 10-fold decreasing concentrations to obtain 8-point concentration-response curves (i.e., 10 μM to 1 pM). The quantity of cGMP generated was detected using HTRF® technology and normalized to maximum amount produced by 100 nM amidated rat ANP and the minimum amount produced by assay buffer. Detailed steps are outlined below.
Stock solutions of test polypeptides (2 mM) dissolved in DMSO were first diluted 100-fold in assay buffer containing HBSS with Ca^2+ and Mg^2+, 5 mM HEPES, 0.5 mM IBMX, and 0.1% BSA or 0.1% casein (pH 7.4). The polypeptides were further serially diluted in 1:10 dilution steps in assay buffer containing 0.1% BSA or 0.1% casein to generate 8-point 2× working stock solutions ranging from 20 μM to […].
A 10 μL cell suspension containing 4000 cells was plated in Costar® half-area white opaque 96-well plates (Corning, cat no. 3693). Then 10 μL of assay buffer (basal activity), 200 nM of amidated rat ANP (maximum activity) or 2× working stock solutions of test polypeptides were transferred into the plate. Final concentration of DMSO in each well was 0.5%. The plate was shaken for 15 sec and then incubated for 40 min at room temperature.
The cGMP generated was measured using cGMP kit following the manufacturer's directions, as described below.

[3] = assay buffer with 0.1% casein, read-out: cGMP Assay (EC50, pM) w/Casein rNPRA
[4] = read-out: cGMP Assay (EC50, pM) w/Casein hNPRA

Compound	EC50 [1, 3]	EC50 [2, 4]	EC50 ([1]; assay buffer with 0.1% BSA, read-out: cGMP Assay (EC50, pM) w/BSA rNPRA)	EC50 ([1]; cGMP Assay (EC50, pM) w/Casein rNPRA, assay buffer with 0.1% casein)	EC50 ([2]; cGMP Assay (EC50, pM) w/Casein hNPRA)
{C20 diacid-γGlu}-EKEKEKG[AEEA][AEEA][AEEA][AEEA][AEEA][AEEA]EK[βAla]RSSCFGKRIDRIGHQSGLGCPSFRHGSPSSGAPPPS-NH2 (linker 20-36 via CH2) [Example 119]	17900 pM	493 pM			
CC[C@H](C)[C@@H]1NC(=O)[C@H](CCCNC(=N)N)NC(=O)[C@H](CC(=O)O)NC(=O)[C@H]([C@@H](C)CC)NC(=O)[C@H](CCCNC(=N)N)NC(=O)[C@H](CCCCN)NC(=O)CNC(=O)[C@H](Cc2ccccc2)NC(=O)[C@@H](NC(=O)[C@H](CO)NC(=O)[C@H](CO)NC(=O)[C@H](CCCNC(=N)N)NC(=O)[C@H](CCCNC(=N)N)NC(=O)[C@H](Cc2ccncc2)NC(=O)[C@H](CO)NC(=O)COCCOCCNC(=O)COCCOCCNC(=O)COCCOCCNC(=O)COCCOCCNC(=O)COCCOCCNC(=O)COCCOCCNC(=O)COCCOCCNC(=O)COCCOCCNC(=O)CNC(=O)[C@H](CCCCN)NC(=O)[C@H](CCC(=O)O)NC(=O)[C@H](CCCCN)NC(=O)[C@H](CCC(=O)O)NC(=O)[C@H](CCCCN)NC(=O)[C@H](CCC(=O)O)NC(=O)CC[C@H](NC(=O)CCCCCCCCCCCCCCCCCCC(=O)O)C(=O)O)CSCSC[C@@H](C(=O)N2CCC[C@H]2C(=O)N[C@@H](CO)C(=O)N[C@@H](Cc2ccccc2)C(=O)N[C@@H](CCCNC(=N)N)C(=O)N[C@@H](Cc2c[nH]cn2)C(=O)NCC(=O)NCC(=O)N[C@@H](CCCCN)C(=O)N[C@@H](CO)C(=O)N[C@@H](CO)C(=O)NCC(=O)N[C@@H](C)C(=O)N2CCC[C@H]2C(=O)N2CCC[C@H]2C(=O)N2CCC[C@H]2C(=O)N[C@@H](CO)C(N)=O)NC(=O)CNC(=O)[C@H](CC(C)C)NC(=O)CNC(=O)[C@H](CO)NC(=O)[C@H](CCC(N)=O)NC(=O)[C@H](Cc2c[nH]cn2)NC(=O)CNC1=O [Example 87]		621 pM	463000 pM		
CC[C@H](C)[C@@H]1NC(=O)[C@H](CCCNC(=N)N)NC(=O)[C@H](CC(=O)O)NC(=O)[C@H]([C@@H](C)CC)NC(=O)[C@H](CCCNC(=N)N)NC(=O)CNC(=O)CNC(=O)[C@H](Cc2ccccc2)NC(=O)[C@@H](NC(=O)[C@H](CO)NC(=O)[C@H](CO)NC(=O)[C@H](CCCNC(=N)N)NC(=O)[C@H](CCCNC(=N)N)NC(=O)[C@H](Cc2ccncc2)NC(=O)[C@H](CO)NC(=O)COCCOCCNC(=O)COCCOCCNC(=O)COCCOCCNC(=O)COCCOCCNC(=O)COCCOCCNC(=O)COCCOCCNC(=O)CNC(=O)[C@H](CCCCN)NC(=O)[C@H](CCC(=O)O)NC(=O)[C@H](CCCCN)NC(=O)[C@H](CCC(=O)O)NC(=O)[C@H](CCCCN)NC(=O)[C@H](CCC(=O)O)NC(=O)CC[C@H](NC(=O)CCCCCCCCCCCCCCCCCCC(=O)O)C(=O)O)CSCSC[C@@H](C(=O)N2CCC[C@H]2C(=O)N[C@@H](CO)C(=O)N[C@@H](Cc2ccccc2)C(=O)N[C@@H](CCCNC(=N)N)C(=O)N[C@@H](Cc2c[nH]cn2)C(=O)NCC(=O)N[C@@H](CO)C(=O)N2CCC[C@H]2C(=O)N[C@@H](CO)C(=O)N[C@@H](CO)C(=O)NCC(=O)N[C@@H](C)C(=O)N2CCC[C@H]2C(=O)N2CCC[C@H]2C(=O)N2CCC[C@H]2C(=O)N[C@@H](CO)C(N)=O)NC(=O)CNC(=O)[C@H](CC(C)C)NC(=O)CNC(=O)[C@H](CO)NC(=O)[C@H](Cc2ccc(O)cc2)NC(=O)[C@H](Cc2c[nH]cn2)NC(=O)CNC1=O [Example 96]				12200 pM	720 pM
{C20 diacid-γGlu}-EKEKEKGEKPRSSCFGG[Dap]IDRIGHQSGLGCPSFRHGSPSSGAPPPS-NH2 (linker 14-30 via CH2) [Example 139]	200000 pM	19700 pM			
